Test results reported in patent US11684067B2, “Generation of peroxyformic acid through polyhydric alcohol formate” (priority 2014, dated 2023).
“And” between values parts separate entries of the source, which are not always exact repeats. Equal entries are not always repeated.

Legend:
[1] = tested on: P. aeruginosa ATCC 15442 biofilm; assay: Biofilm disinfectant efficacy, CDC Biofilm Reactor, Single Tube Method (ASTM E2562-12, E2871-12); type: cell-based, Pseudomonas aeruginosa
Method: P. aeruginosa ATCC 15442 biofilm was grown on the surface of 24 polycarbonate coupons following ASTM method E2562-12: Standard Test Method for Quantification of Pseudomonas aeruginosa Biofilm Grown with High Shear and Continuous Flow using CDC Biofilm Reactor. After 48 hours of biofilm establishment, the coupons were removed from the reactor and placed into individual centrifuge tubes. Three coupons per test substance were tested for disinfectant efficacy using ASTM method E2871-12: Standard Test Method for Evaluating Disinfectant Efficacy against Pseudomonas aeruginosa Biofilm Grown in CDC Biofilm Reactor using Single Tube Method. Each coupon was exposed to 4 mL of chemistry for an exposure time of 3 hours. […] This was followed with a series of vortexing and sonicating steps to remove any biofilm from the coupon surface into the solution for plating and enumeration.
P. aeruginosa ATCC 15442 biofilm was grown on the surface of 24 polycarbonate coupons following ASTM method E2562-12: Standard Test Method for Quantification of Pseudomonas aeruginosa Biofilm Grown with High Shear and Continuous Flow using CDC Biofilm Reactor. After 48 hours of biofilm establishment, the coupons were removed from the reactor and placed into individual centrifuge tubes. […]

[2] = tested on: Nalidixic acid resistant E. coli O157:H7; assay: Reduction of E. coli on raw beef brisket, dip treatment; type: cell-based; details: 10 minutes dip, ambient, 220 ppm POAA / 180 ppm PFA / 50 ppm LAS per formula (Table 15)
Method: Nalidixic acid resistant E. coli O157:H7 was used to evaluate the efficacy in treatment with performic acid composition on raw beef brisket according to the conditions shown in Table 14.
The generation of PFA from the perhydrolysis of glycerol formates, PFA formulations, POAA formations and controls were evaluated as shown in Table 15.

[3] = tested on: Bacillus subitilisATCC 19659; assay: Sporicidal activity of ester PFA versus POAA (Example 23); type: cell-based, Bacillus subtilis; details: 20°C, dirty
Text: Additional Bacillus pathogens were used to evaluate the micro efficacy of ester PFA generated according to methods of the present invention in comparison to POAA.

[4] = 300 ppm PFA pH 6.73 / 368 ppm POAA pH 6.88, 5 minutes
[5] = 300 ppm PFA pH 6.73 / 368 ppm POAA pH 6.88, 10 minutes
[6] = 400 ppm PFA pH 6.95 / 490 ppm POAA pH 6.65, 5 minutes
[7] = 400 ppm PFA pH 6.95 / 490 ppm POAA pH 6.65, 10 minutes

## O=COO [PFA, peroxyformic acid]
[1]; 50 ppm PFA 15 minutes to 3 hours vs 200 ppm POAA 3 hours, FIG. 12
  anti-biofilm efficacy compared with POAA: greater anti-biofilm efficacy
[1]; 3 hours exposure, concentration lower than POAA, FIG. 11
  anti-biofilm efficacy compared with POAA: significantly greater anti-biofilm efficacy
[2]
  Average Log CFU/cm2: 3.22 Log CFU/cm2
  Log reduction: 0.83 Log
[2]; single samples
  CFU/cm2: 1.84E+03 CFU/cm2 and 1.42E+03 CFU/cm2 and 1.72E+03 CFU/cm2
  CFU/ml: 9.20E+02 CFU/ml and 7.10E+02 CFU/ml and 8.60E+02 CFU/ml
  Log CFU/cm2: 3.26 Log CFU/cm2 and 3.15 Log CFU/cm2 and 3.24 Log CFU/cm2
[3]; [4]
  Average CFU/mL: >3.0E+05 CFU/mL
  Log10 Growth: >5.48 Log10
  Log10 Reduction: <2.26 Log10
[3]; [5]
  Average CFU/mL: 1.28E+05 CFU/mL
  Log10 Growth: 5.11 Log10
  Log10 Reduction: 2.63 Log10
[3]; [6]
  Average CFU/mL: >3.0E+05 CFU/mL
  Log10 Growth: >5.48 Log10
  Log10 Reduction: <2.26 Log10
[3]; [7]
  Average CFU/mL: 7.50E+04 CFU/mL
  Log10 Growth: 4.88 Log10
  Log10 Reduction: 2.86 Log10
